Assay results: US8008007B2, “S-adenosyl-L-methionine analogs with extended activated groups for transfer by methyltransferases” (RWTH Aachen, priority 2005, dated 2011)

How the values were obtained:
Format in all cases: biochemical
M.HhaI-Q82A = target: T1, M.HhaI-Q82A (Haemophilus parahaemolyticus, UniProt P05102, Q82A); experiment: DNA protection assay with M.HhaI variant Q82A on phage lambda DNA; details: 1.16 μg phage lambda DNA, cofactor 300 μM, 37° C. for 4 h, then R.Hin6I; pH 7.4 (pH 6.0 for cofactor 6)
T1 construct: made in house
Excerpt: (§1) Transfer kinetics of the activated ethyl (—CH2CH3), propyl (—CH2CH2CH3), prop-2-enyl (—CH2CH═CH2), prop-2-ynyl (—CH2C≡CH), but-2-ynyl (—CH2C≡CCH3), pent-2-ynyl (—CH2C≡CCH2CH3) and benzyl group (—CH2C6H5) from cofactors 3-9 by the DNA adenine-N6 methyltransferase M.TaqI and its variant V21 G, the DNA cytosine-C5 methyltransferase M.HhaI and its variant Q82A, the DNA cytosine-N4 methyltransferase M.BcnIB and the DNA cytosine-C5 methyltransferase M.SssI variant Q142A to phage lambda DNA (48502 base pairs) were investigated using a DNA protection assay. This assay makes use of the fact that DNA methyltransferase-catalyzed modifications of nucleobases within the recognition sequences of restriction endonucleases can protect the DNA against fragmentation by these enzymes. […] Unmodified DNA containing 5′-TCGA-3′ recognition sequences is readily fragmentated by R.TaqI. After DNA modification by M.TaqI in the presence of a cofactor with an activated group Z—R modified 5′-TCGA^Z—R-3′ sequences are formed and, as a result, R.TaqI is unable to fragment the modified DNA. Occurrence of fragmentation is then analyzed by agarose gel electrophoresis.
(§2) By varying the amounts of DNA methyltransferase, this assay is used to investigate the enzymatic activities of the different DNA methyltransferases with cofactors 3-9 and compare them to the enzymatic activities with the natural cofactor 1. The minimal amount of DNA methyltransferase needed to fully protect 1 μg of phage lambda DNA against restriction endonuclease fragmentation under the given experimental conditions is defined as one enzyme unit (u).
(§3) Afterwards, the reactions were stopped by heating to 80° C. for 10 min. […] Parallel control experiments were performed with phage lambda DNA in the absence of M.HhaI and in the presence of M.HhaI (278 ng).
The DNA protection assay with the M.HhaI variant Q82A (see Example 2B) was performed as described for the wild type enzyme (Example 3B.1).

M.BcnIB [1] = experiment: DNA protection assay with M.BcnIB (wild-type) on phage lambda DNA; details: 1.10 μg phage lambda DNA, cofactor 300 μM, 37° C. for 4 h, then R.BcnI; pH 7.4 (pH 6.0 for cofactor 6)
Excerpt: as §1, §2
Afterwards the reactions were stopped by heating to 80° C. for 10 min. A solution (10 μL) containing R.BcnI restriction endonuclease (12 u, MBI Fermentas), bovine serum albumin (0.1 mg/mL) and buffer (33 mM Tris acetate, 66 mM potassium acetate, 26.5 mM magnesium chloride, pH 7.9) was added to each dilution and incubation at 37° C. was continued for 1 h. […] Parallel control experiments were performed with phage lambda DNA in the absence of M.BcnIB and in the presence of M.BcnIB (144 ng).

M.SssI-Q142A = target: T2, M.SssI-Q142A (Spiroplasma monobiae, UniProt P15840, Q142A); experiment: DNA protection assay with M.SssI variant Q142A on phage lambda DNA; details: 1 μg phage lambda DNA, cofactor 300 μM, 37° C. for 4 h, then R.BstUI
T2 construct: made in house
Excerpt: as §1
By varying the amounts of DNA methyltransferase, this assay is used to investigate the enzymatic activities of the different DNA methyltransferases with cofactors 3-9 and compare them to the enzymatic activities with the natural cofactor 1. […]
Two fold serial dilutions (20 μL) of M.SssI-Q142A (starting with 3300 ng, 73 pmol) in buffer (10 mM Tris hydrochloride, 50 mM sodium chloride, 1 mM dithiothreitol, pH 7.9), phage lambda DNA (1 μg, 31.3 fmol, 3113 5′-CG-3′ recognition sequences, […] recognition sequences, MBI Fermentas) and the natural cofactor 1 (300 μM) or cofactor analogs 5 and 7 (300 μM) were incubated at 37° C. for 4 h. […] Loading buffer (10 μL, 0.25% bromphenol blue, 30% glycerol) was added to each sample, and aliquots (15 μL) were analyzed for the degree of protection by agarose gel (1%) electrophoresis.

M.HhaI = target: T3, M.HhaI (Haemophilus parahaemolyticus, UniProt P05102); experiment: DNA protection assay with M.HhaI (wild-type) on phage lambda DNA; details: 1.16 μg phage lambda DNA, cofactor 300 μM, 37° C. for 4 h, then R.Hin6I; pH 7.4 (pH 6.0 for cofactor 6)
T3 construct: made in house
Excerpt: as §1, §2, §3

M.BcnIB [2] = experiment: Modification of cytosine-N4 in duplex oligodeoxynucleotide V.VI by M.BcnIB, nucleoside analysis by HPLC/ESI-MS; details: duplex V.VI 12.5 μM, cofactor 300 μM, enzyme 15 μM, 37° C. over night
Excerpt: Transfer of the activated ethyl (CH2CH3), propyl (CH2CH2CH3), prop-2-enyl (CH2CHCH2), prop-2-ynyl group (CH2CCH), but-2-ynyl (CH2CCCH3), pent-2-ynyl (CH2CCCH2CH3) or benzyl group (CH2C6H5) from cofactors 3-9 by the DNA adenine-N6 methyltransferase M.TaqI, the DNA cytosine-C5 methyltransferase M.HhaI variant Q82A or the DNA cytosine-N4 methyltransferase M.BcnIB to DNA was first investigated using short duplex oligodeoxynucleotides as substrates. After enzymatic transfer the duplex oligodeoxynucleotides were enzymatically fragmented and the resulting modified nucleosides were analyzed by reversed-phase HPLC coupled with ESI-MS.
The duplex oligodeoxynucleotide V.VI was produced by mixing equal molar amounts (2.5 nmol) of complementary single-stranded oligodeoxynucleotide V (5′-[…]-3′) (SEQ ID NO. 3) and VI (5′-[…]-3′) (SEQ ID NO. 4) in water, heating at 85° C. for 5 min and slow cooling to room temperature. […] M.BcnIB was denatured by heating to 80° C. for 10 min and incubated with proteinase K at 55° C. 1 h. Hydrolysis products were removed using gel filtration column (G-25 column, Amersham Biosciences).
The obtained solutions of duplex oligodeoxynucleotides were treated with buffer ( 1/10 volume, 100 mM Tris-HCl, 100 mM magnesium chloride, 10 mM zinc acetate, pH 7.5) containing Nuclease P1 (1500 u, Sigma) and calf intestine alkaline phosphatase (30 u, MBI Fermentas) and incubated at 37° C. for 4 h. Nucleosides were analyzed by reversed-phase HPLC (Discovery C18 150×2.1 mm, 5 μm, equipped with a Supelguard Discovery C18 20×2.1 mm, 5 μm, pre-column, Supelco, Germany) coupled with a mass spectrometric detector (HP 1100 series ESI-MS equipped with single quadruple). Compounds were eluted with methanol (0% for 6 min, followed by linear gradients to 56% in 15 min and to 80% in 1 min) in ammonium formate buffer (20 mM, pH 4.25 for cofactors 3, 4, 6 and pH 3.5 for cofactor 5) at a flow of 0.3 mL/min and detected at 280 nm. For on-line mass spectrometric detection post-column mobile phase modification (equal co-flow of 96% methanol, 4% formic acid and 1 mM sodium hydroxide) was used to enhance the detection efficiency of 2′-deoxycytidine and its derivatives. Mass spectra were recorded in 50-600 m/z range.

T3 sequence (P05102 whole entry): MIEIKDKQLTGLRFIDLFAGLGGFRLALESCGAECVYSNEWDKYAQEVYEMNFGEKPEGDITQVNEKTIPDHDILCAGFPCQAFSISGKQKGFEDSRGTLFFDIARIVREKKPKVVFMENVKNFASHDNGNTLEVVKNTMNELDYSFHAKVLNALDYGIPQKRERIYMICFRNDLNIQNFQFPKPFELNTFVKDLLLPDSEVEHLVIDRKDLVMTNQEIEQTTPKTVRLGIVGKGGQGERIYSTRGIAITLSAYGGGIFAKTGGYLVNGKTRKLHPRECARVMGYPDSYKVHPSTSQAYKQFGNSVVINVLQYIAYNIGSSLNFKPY
T1 sequence (P05102 whole entry Q82A): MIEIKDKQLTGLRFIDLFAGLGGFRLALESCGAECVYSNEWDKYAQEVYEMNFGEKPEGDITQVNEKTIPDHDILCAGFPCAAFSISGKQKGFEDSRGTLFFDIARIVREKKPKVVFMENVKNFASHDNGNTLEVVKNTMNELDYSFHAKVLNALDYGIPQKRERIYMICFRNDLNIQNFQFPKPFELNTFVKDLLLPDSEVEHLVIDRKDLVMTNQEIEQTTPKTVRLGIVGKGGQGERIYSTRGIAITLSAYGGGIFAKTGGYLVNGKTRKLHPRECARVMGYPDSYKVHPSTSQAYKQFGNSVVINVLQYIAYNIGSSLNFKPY
T2 sequence (P15840 whole entry Q142A): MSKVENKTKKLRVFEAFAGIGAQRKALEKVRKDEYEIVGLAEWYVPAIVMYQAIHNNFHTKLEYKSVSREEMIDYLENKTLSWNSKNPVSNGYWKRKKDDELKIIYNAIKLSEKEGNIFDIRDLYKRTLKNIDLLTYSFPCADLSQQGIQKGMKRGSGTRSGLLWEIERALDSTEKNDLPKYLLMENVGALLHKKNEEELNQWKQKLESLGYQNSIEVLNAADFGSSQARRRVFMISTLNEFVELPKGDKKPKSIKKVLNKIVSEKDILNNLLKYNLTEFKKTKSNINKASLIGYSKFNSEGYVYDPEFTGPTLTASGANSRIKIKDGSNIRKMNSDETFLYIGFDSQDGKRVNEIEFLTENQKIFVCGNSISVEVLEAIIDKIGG

| Structure (SMILES) | specific activity of M.HhaI-Q82A with the cofactor (M.HhaI-Q82A) | specific activity of M.BcnIB with the cofactor (M.BcnIB [1]) | specific activity of M.SssI-Q142A with the cofactor (M.SssI-Q142A) | specific activity of M.HhaI with the cofactor (M.HhaI) | cofactor function for M.BcnIB (transfer of group Z-R to cytosine-N4) (M.BcnIB [2]) |
| --- | --- | --- | --- | --- | --- |
| CC#CC[S+](CCC(N)C(=O)O)CC1OC(n2cnc3c(N)ncnc32)C(O)C1O (mixture of isomers) [Cofactor 7] | 58 u/μg | 28 u/μg | 0.6 u/μg | 29 u/μg |  |
| CC[S+](CCC(N)C(=O)O)CC1OC(n2cnc3c(N)ncnc32)C(O)C1O (stereo not shown) [Cofactor 3] | 7 u/μg |  |  |  | functions as a cofactor |
| CCC[S+](CCC(N)C(=O)O)CC1OC(n2cnc3c(N)ncnc32)C(O)C1O (stereo not shown) [Cofactor 4] | 0 u/μg |  |  | 0 u/μg | does not function as a cofactor |
| C=CC[S+](CCC(N)C(=O)O)CC1OC(n2cnc3c(N)ncnc32)C(O)C1O (stereo not shown) [Cofactor 5] | 29 u/μg |  | 1.2 u/μg | 7 u/μg | functions as a cofactor |
| C#CC[S+](CCC(N)C(=O)O)CC1OC(n2cnc3c(N)ncnc32)C(O)C1O (stereo not shown) [Cofactor 6] |  | 0 u/μg |  |  | does not function as a cofactor |
| CCC#CC[S+](CCC(N)C(=O)O)CC1OC(n2cnc3c(N)ncnc32)C(O)C1O (stereo not shown) [Cofactor 8] |  | 14 u/μg |  |  |  |
